# Results: ChEMBL document CHEMBL2073850, “Human organic anion transporters and human organic cation transporters mediate renal transport of prostaglandins” (J Pharmacol Exp Ther, 2002)
# What was measured:
# Type in all cases: functional, cell-based
# Parameters in all cases: scale not given: the % may be the effect or the level left
# [1] = target: T1, OAT2 (Solute carrier family 22 member 7) (Homo sapiens, UniProt Q9Y694); test: TP_TRANSPORTER: inhibition of PGF2alpha uptake (PGF2alpha: 0.05 uM, PGE2: 30 uM) in OAT2-expressing S2 cells; conditions: mouse, probe PGF2alpha, read-out: Activity
# T1 sequence (Q9Y694 whole entry): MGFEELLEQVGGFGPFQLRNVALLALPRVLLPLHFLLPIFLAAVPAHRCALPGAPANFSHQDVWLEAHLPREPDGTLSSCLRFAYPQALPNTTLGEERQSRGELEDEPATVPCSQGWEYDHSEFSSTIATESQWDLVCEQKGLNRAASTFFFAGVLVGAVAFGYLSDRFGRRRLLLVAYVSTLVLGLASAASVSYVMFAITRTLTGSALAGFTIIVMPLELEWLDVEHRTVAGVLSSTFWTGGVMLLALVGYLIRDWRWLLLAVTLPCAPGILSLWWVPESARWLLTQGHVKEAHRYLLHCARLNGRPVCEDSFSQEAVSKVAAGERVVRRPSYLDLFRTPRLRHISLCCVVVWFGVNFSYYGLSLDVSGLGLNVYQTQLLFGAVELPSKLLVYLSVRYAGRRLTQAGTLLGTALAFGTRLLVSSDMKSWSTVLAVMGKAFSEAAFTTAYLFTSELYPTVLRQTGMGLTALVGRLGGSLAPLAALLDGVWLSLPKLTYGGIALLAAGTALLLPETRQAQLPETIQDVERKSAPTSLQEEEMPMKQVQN
# [2] = target: T2, OAT4 (Solute carrier family 22 member 11) (Homo sapiens, UniProt Q9NSA0); test: TP_TRANSPORTER: inhibition of ES uptake (ES: 0.05 uM, PGE2: 30 uM) in OAT4-expressing S2 cells; conditions: probe ES, read-out: Activity
# T2 sequence (Q9NSA0 whole entry): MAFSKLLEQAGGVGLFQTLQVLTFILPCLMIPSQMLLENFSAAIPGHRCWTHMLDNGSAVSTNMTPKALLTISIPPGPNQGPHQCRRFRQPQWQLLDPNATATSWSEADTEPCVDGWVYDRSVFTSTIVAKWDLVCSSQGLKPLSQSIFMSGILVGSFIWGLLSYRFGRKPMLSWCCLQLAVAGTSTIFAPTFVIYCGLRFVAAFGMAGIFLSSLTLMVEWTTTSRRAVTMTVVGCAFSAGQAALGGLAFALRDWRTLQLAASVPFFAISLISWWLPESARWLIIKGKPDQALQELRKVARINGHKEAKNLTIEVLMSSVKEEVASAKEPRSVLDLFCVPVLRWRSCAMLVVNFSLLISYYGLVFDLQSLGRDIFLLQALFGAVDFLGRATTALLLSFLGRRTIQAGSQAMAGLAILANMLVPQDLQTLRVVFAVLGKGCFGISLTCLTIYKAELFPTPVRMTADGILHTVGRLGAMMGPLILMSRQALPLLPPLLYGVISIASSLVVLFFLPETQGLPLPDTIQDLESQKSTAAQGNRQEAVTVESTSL
# [3] = target: T3, Organic anion transporter 3 (Homo sapiens, UniProt Q8TCC7); test: TP_TRANSPORTER: inhibition of ES uptake (ES: 0.05 uM, PGE2: 30 uM) in OAT3-expressing S2 cells; conditions: s2, 30 µM
# T3 sequence (Q8TCC7 whole entry): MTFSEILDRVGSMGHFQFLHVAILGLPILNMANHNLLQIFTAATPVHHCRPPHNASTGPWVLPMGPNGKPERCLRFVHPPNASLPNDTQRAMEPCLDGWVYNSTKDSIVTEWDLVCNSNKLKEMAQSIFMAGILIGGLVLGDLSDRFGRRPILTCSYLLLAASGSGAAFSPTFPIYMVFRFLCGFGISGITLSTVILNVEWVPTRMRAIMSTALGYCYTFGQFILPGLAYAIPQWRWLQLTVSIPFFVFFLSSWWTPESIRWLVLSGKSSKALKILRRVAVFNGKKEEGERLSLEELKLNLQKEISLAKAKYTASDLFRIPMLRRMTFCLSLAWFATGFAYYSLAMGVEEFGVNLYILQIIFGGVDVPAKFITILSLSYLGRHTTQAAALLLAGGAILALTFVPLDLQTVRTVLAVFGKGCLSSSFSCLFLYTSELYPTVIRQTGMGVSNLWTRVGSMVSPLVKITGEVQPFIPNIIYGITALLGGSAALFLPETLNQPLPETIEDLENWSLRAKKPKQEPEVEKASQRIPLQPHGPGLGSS
# [4] = target: T4, OCT2 (Solute carrier family 22 member 2) (Homo sapiens, UniProt O15244); test: TP_TRANSPORTER: inhibition of TEA uptake (TEA: 5 uM, PGE2: 1000 uM) in OCT2-expressing S2 cells; conditions: mouse, probe TEA, read-out: Activity
# T4 sequence (O15244 whole entry): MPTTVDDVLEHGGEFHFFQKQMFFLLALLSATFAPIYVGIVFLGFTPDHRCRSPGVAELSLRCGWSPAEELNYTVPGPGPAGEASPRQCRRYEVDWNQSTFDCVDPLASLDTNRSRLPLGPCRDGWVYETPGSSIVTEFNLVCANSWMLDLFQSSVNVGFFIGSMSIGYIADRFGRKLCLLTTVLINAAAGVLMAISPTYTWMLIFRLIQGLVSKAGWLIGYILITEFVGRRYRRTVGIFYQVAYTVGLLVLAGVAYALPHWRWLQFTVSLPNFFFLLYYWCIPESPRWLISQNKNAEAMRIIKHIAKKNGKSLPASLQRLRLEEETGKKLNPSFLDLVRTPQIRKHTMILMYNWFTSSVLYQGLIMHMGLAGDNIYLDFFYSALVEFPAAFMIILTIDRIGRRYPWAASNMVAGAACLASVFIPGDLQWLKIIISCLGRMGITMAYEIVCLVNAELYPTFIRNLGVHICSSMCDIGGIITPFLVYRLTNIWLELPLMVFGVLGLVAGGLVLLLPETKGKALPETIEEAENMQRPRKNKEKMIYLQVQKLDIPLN
# [5] = target: T5, OCT1 (Solute carrier family 22 member 1) (Homo sapiens, UniProt O15245); test: TP_TRANSPORTER: inhibition of TEA uptake (TEA: 5 uM, PGE2: 1000 uM) in OCT1-expressing S2 cells; conditions: probe TEA, read-out: Activity
# T5 sequence (O15245 whole entry): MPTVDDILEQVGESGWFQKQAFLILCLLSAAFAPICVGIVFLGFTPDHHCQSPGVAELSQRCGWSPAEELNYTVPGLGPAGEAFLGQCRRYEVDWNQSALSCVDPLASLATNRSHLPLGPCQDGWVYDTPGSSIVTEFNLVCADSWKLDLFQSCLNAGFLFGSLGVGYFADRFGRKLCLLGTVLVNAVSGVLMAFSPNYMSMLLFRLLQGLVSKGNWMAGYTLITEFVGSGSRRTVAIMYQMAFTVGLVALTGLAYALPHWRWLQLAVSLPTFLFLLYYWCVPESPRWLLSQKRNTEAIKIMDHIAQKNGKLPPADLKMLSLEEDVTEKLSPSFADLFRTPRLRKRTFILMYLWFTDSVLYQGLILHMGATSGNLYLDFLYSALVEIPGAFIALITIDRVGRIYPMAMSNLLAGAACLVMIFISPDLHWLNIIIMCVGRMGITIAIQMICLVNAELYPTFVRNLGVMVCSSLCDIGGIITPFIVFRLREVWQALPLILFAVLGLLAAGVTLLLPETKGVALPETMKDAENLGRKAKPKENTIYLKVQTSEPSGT
# [6] = target: T6, OAT1 (Solute carrier family 22 member 6) (Homo sapiens, UniProt Q4U2R8); test: TP_TRANSPORTER: inhibition of PAH uptake (PAH: 5 uM, PGF2alpha: 1000 uM) in OAT1-expressing S2 cells; conditions: mouse, probe PAH, read-out: Activity
# T6 sequence (Q4U2R8 whole entry): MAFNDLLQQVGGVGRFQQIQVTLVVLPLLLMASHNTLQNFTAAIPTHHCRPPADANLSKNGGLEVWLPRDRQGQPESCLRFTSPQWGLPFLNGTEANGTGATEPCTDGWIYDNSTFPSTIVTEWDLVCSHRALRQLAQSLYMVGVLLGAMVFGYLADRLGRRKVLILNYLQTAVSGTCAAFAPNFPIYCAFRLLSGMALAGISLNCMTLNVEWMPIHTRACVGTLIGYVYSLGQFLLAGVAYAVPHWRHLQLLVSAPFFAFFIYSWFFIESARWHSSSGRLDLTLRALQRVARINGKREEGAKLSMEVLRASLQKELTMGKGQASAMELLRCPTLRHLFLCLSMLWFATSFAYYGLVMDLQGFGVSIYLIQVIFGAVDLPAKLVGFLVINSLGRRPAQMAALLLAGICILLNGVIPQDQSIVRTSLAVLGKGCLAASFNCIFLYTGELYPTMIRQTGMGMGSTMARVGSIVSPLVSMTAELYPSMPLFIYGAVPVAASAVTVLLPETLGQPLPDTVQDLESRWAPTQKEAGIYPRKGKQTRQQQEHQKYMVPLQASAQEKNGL
# [7] = target: T7, OAT3 (Organic anion transporter 3) (Homo sapiens, UniProt Q8TCC7); test: TP_TRANSPORTER: inhibition of ES uptake (ES: 0.05 uM, PGF2alpha: 30 uM) in OAT3-expressing S2 cells; conditions: probe ES, read-out: Activity
# T7 sequence (Q8TCC7 whole entry): T3 sequence (Q8TCC7 whole entry)
# [8] = target: T2, OAT4 (Solute carrier family 22 member 11); test: TP_TRANSPORTER: inhibition of ES uptake (ES: 0.05 uM, PGF2alpha: 30 uM) in OAT4-expressing S2 cells; conditions: mouse, probe ES, read-out: Activity
# [9] = target: T8, Solute carrier family 22 member 1 (Homo sapiens, UniProt O15245); test: TP_TRANSPORTER: inhibition of TEA uptake (TEA: 5 uM, PGF2alpha: 1000 uM) in OCT1-expressing S2 cells; conditions: mouse, s2, 1000 µM
# T8 sequence (O15245 whole entry): T5 sequence (O15245 whole entry)
# [10] = target: T4, OCT2 (Solute carrier family 22 member 2); test: TP_TRANSPORTER: inhibition of TEA uptake (TEA: 5 uM, PGF2alpha: 1000 uM) in OCT2-expressing S2 cells; conditions: mouse, probe TEA, read-out: Activity
activity at 30 µM [1],activity at 30 µM [2],Activity [3],activity at 1000 µM [4],activity at 1000 µM [5],activity at 1000 µM [6],activity at 30 µM [7],activity at 30 µM [8],Activity [9],activity at 1000 µM [10],Structure (SMILES)
21.2%,57%,21.8%,75.6%,31.4%,–,–,–,–,–,CCCCC[C@H](O)/C=C/[C@H]1[C@H](O)CC(=O)[C@@H]1C/C=C\CCCC(=O)O [DINOPROSTONE]
–,–,–,–,–,17.7%,26.8%,40.8%,68.9%,70.7%,CCCCC[C@H](O)/C=C/[C@@H]1[C@@H](C/C=C\CCCC(=O)O)[C@@H](O)C[C@H]1O [DINOPROST]
